Laboratory results published in patent EP4729053A1, “SOLID DISPERSION OF P2X4 INHIBITOR, AND PREPARATION METHOD THEREFOR AND USE THEREOF” (Wuhan Createrna Science and Technology Co.,Ltd., priority 2023, dated 2024).

Experiments:
[1] = Solubilization test of compound 1 with surfactants in FaSSIF; type: physicochemical; conditions: for Concentration of API in vehicle: FaSSIF (pH 6.5), 37°C
Experimental: 50 mg of compound 1 was weighed into 5 mL of FaSSIF medium containing 5 mg of different surfactants (target concentration of API (compound 1): 10 mg/mL). The mixture was shaken at 500 rpm and 37°C. 0.5 mL each of the suspension samples was taken at 0.5 hours, 1 hour, 2 hours, and 4 hours, respectively, centrifuged at 14,000 rpm for 5 minutes, and the supernatant was diluted and analyzed by HPLC. Table 1: Solubility results of compound 1 in FaSSIF containing 10% of surfactant by weight

[2] = Pharmacokinetic study in rats, intragastric administration; type: in vivo; conditions: rat, plasma, po, Male SD rats, i.g., vehicle 5% Solutol
Experimental: SPF-grade male SD rats weighing 160 to 320 g were divided into 2 groups, with 3 rats per group [Source: Beijing Vital River Laboratory Animal Technology Co., Ltd., Certificate No.: 1103242011040898].
Formulation and dosing: According to the drug concentration and dosing requirements in Table 15 below, the API was accurately weighed and added to the required volume of 5% Solutol. The mixture was vortexed for 2 minutes, then sonicated for 10 minutes, and stirred for 1 hour before administration. Table 15: Formulation and dosing regimen for API pharmacokinetic study
SPF-grade male SD rats weighing 160 to 320 g were divided into 6 groups, with 3 rats per group [Source: Beijing Vital River Laboratory Animal Technology Co., Ltd., Certificate No.: 110011210113195883 (male)].
Formulation and dosing: 80 mg of the corresponding sample in the table below was accurately weighed, dispersed in the required volume of pure water, vortexed for 5 minutes, and administered intragastrically (i.g.). The experimental dosing was scaled proportionally based on animal body weight and dosing concentration.
After administration to the SD rats in each group of Experimental Preparation 1 and Experimental Preparation 2, approximately 0.2 to 0.3 mL of blood samples were collected from the orbital venous plexus at 0.167, 0.5, 1, 2, 3, 4, 6, 8, 10, and 24 hours post-dosing, and transferred to an anticoagulant EP tube (containing 4 µL of EDTA-K2, 375 mg/mL), which was gently inverted three times, stored in an ice box (no more than 30 minutes), centrifuged at 3500 × g for 10 minutes at 4°C, and plasma supernatant was transferred to a labeled EP tube. Hemolysis was observed and recorded, followed by bioanalytical testing.
Sample pretreatment: 40 µL of sample was mixed with 160 µL of acetonitrile containing 0.1% FA and 200 ng/mL mixed internal standard to precipitate proteins. The mixture was vortexed thoroughly and centrifuged at 13,000 rpm for 10 minutes at 4°C.
110 µL of the supernatant was transferred to another 96-well deep-well plate, followed by addition of 110 µL of a mixture of methanol and water (1:3, v:v) containing 0.1% FA. The mixture was shaken for 10 minutes and analyzed using an LC-MS/MS system. The system employed a Sciex Exion LC AD high-performance liquid chromatography system with an XBridge BEH C18 (2.1 × 50 mm, 2.5 µm) column for gradient elution and an AB Sciex Qtrap 4500 mass spectrometer for analysis. The mass spectrometer employed an electrospray ionization (ESI) source in positive ion mode to monitor Tolbutamide, with precursor ion to product ion transitions with mass-to-charge ratios (m/z) of 415.1→263.1 and 271.1→155, respectively.
Data were analyzed using WinNonlin (version 5.2.1, Pharsight, Mountain View, CA) with a non-compartmental model to obtain PK parameters (Cmax, Tmax, T1/2, AUClast, etc.). Table 15: Pharmacokinetic data of some solid dispersions

With NS(=O)(=O)c1cc(NC(=O)Cc2ccccc2Cl)cc2nn(C(F)F)cc12 [compound 1] as the compound, how does the “Concentration of API in vehicle” value ([1]; Cremophor EL 5 mg, 0.5 h) read?
Its value is 1574.3 µg/mL.

And the “Concentration of API in vehicle” value ([1]; Cremophor EL 5 mg, 1 h)?
Its value is 1604.3 µg/mL.

What about the “Concentration of API in vehicle” value ([1]; Cremophor EL 5 mg, 2 h) of the same compound?
The value was 1538.6 µg/mL.

What about the “Concentration of API in vehicle” value ([1]; Cremophor EL 5 mg, 4 h) of the same compound?
Its value is 1508.2 µg/mL.

And the “Concentration of API in vehicle” value ([1]; Cremophor RH40 5 mg, 0.5 h)?
Its value is 1583.3 µg/mL.

What about the “Concentration of API in vehicle” value ([1]; Cremophor RH40 5 mg, 1 h) of the same compound?
The value was 1604.5 µg/mL.

And the “Concentration of API in vehicle” value ([1]; Cremophor RH40 5 mg, 2 h)?
Its value is 1567.0 µg/mL.

And the “Concentration of API in vehicle” value ([1]; Cremophor RH40 5 mg, 4 h)?
Its value is 1539.4 µg/mL.

And the “Concentration of API in vehicle” value ([1]; Poloxamer 188 5 mg, 0.5 h)?
Its value is 115.6 µg/mL.

What about the “Concentration of API in vehicle” value ([1]; Poloxamer 188 5 mg, 1 h) of the same compound?
Its value is 123.3 µg/mL.

And the “Concentration of API in vehicle” value ([1]; Poloxamer 188 5 mg, 2 h)?
Its value is 104.0 µg/mL.

What about the “Concentration of API in vehicle” value ([1]; Poloxamer 188 5 mg, 4 h) of the same compound?
The value was 93.9 µg/mL.

What about the “Concentration of API in vehicle” value ([1]; Poloxamer 407 5 mg, 0.5 h) of the same compound?
The value was 838.4 µg/mL.

What about the “Concentration of API in vehicle” value ([1]; Poloxamer 407 5 mg, 1 h) of the same compound?
Its value is 860.7 µg/mL.

What about the “Concentration of API in vehicle” value ([1]; Poloxamer 407 5 mg, 2 h) of the same compound?
The value was 842.0 µg/mL.

What about the “Concentration of API in vehicle” value ([1]; Poloxamer 407 5 mg, 4 h) of the same compound?
Its value is 796.7 µg/mL.

And the “Concentration of API in vehicle” value ([1]; SLS 5 mg, 0.5 h)?
The value was 614.0 µg/mL.

What about the “Concentration of API in vehicle” value ([1]; SLS 5 mg, 1 h) of the same compound?
Its value is 622.0 µg/mL.

What about the “Concentration of API in vehicle” value ([1]; SLS 5 mg, 2 h) of the same compound?
Its value is 639.0 µg/mL.

What about the “Concentration of API in vehicle” value ([1]; SLS 5 mg, 4 h) of the same compound?
Its value is 652.0 µg/mL.

What about the “Concentration of API in vehicle” value ([1]; Solutol HS15 5 mg, 0.5 h) of the same compound?
The value was 1465.9 µg/mL.

And the “Concentration of API in vehicle” value ([1]; Solutol HS15 5 mg, 1 h)?
Its value is 1501.6 µg/mL.

And the “Concentration of API in vehicle” value ([1]; Solutol HS15 5 mg, 2 h)?
Its value is 1480.7 µg/mL.

And the “Concentration of API in vehicle” value ([1]; Solutol HS15 5 mg, 4 h)?
The value was 1456.3 µg/mL.

What about the “Concentration of API in vehicle” value ([1]; Tween 80 5 mg, 0.5 h) of the same compound?
Its value is 899.3 µg/mL.

And the “Concentration of API in vehicle” value ([1]; Tween 80 5 mg, 1 h)?
Its value is 893.1 µg/mL.

And the “Concentration of API in vehicle” value ([1]; Tween 80 5 mg, 2 h)?
Its value is 888.5 µg/mL.

And the “Concentration of API in vehicle” value ([1]; Tween 80 5 mg, 4 h)?
The value was 886.6 µg/mL.

What about the “Concentration of API in vehicle” value ([1]; VE-TPGS 5 mg, 0.5 h) of the same compound?
Its value is 2113.7 µg/mL.

What about the “Concentration of API in vehicle” value ([1]; VE-TPGS 5 mg, 1 h) of the same compound?
The value was 2122.7 µg/mL.

What about the “Concentration of API in vehicle” value ([1]; VE-TPGS 5 mg, 2 h) of the same compound?
The value was 2089.3 µg/mL.

What about the “Concentration of API in vehicle” value ([1]; VE-TPGS 5 mg, 4 h) of the same compound?
Its value is 2077.5 µg/mL.

What about the “Concentration of API in vehicle” value ([1]; no surfactant, 0.5 h) of the same compound?
Its value is 33.9 µg/mL.

And the “Concentration of API in vehicle” value ([1]; no surfactant, 1 h)?
The value was 22.9 µg/mL.

And the “Concentration of API in vehicle” value ([1]; no surfactant, 2 h)?
Its value is 15.2 µg/mL.

And the “Concentration of API in vehicle” value ([1]; no surfactant, 4 h)?
The value was 14.9 µg/mL.

And the “solubility of compound 1” value ([1]; with surfactants SLS, Cremophor EL, Cremophor RH40, VE-TPGS, Tween 80, Poloxamer 407, and Solutol HS15)?
The value was “significantly improved”.

What about the AUC(0-t) ([2]; 30.00 mg/kg) of the same compound?
Its AUC(0-t) is 10800 ng·h/mL.

What about the Cmax ([2]; 30.00 mg/kg) of the same compound?
The Cmax was 2.76 µg/mL.

And the Tmax ([2]; 30.00 mg/kg)?
Its Tmax is 0.67 h.

And the half-life ([2]; 30.00 mg/kg)?
The half-life was 5.31 h.

And the AUC(0-t) ([2]; 300.00 mg/kg)?
The AUC(0-t) was 14700 ng·h/mL.

And the Cmax ([2]; 300.00 mg/kg)?
The Cmax was 2.36 µg/mL.

And the Tmax ([2]; 300.00 mg/kg)?
Its Tmax is 1 h.

And the half-life ([2]; 300.00 mg/kg)?
The half-life was 13.8 h.
